# Paper PMC7542364 (mBio, 2020)
# Experiments:
# [1] = target: McpBC (McpB cytoplasmic region, residues 305 to 662) (Bacillus subtilis, UniProt P39215); details: 50 uM protein, 3 mM ethanol, PBS in D2O pH 7.4, 298 K
# [2] = target: HemATN (HemAT sensing domain, residues 1 to 178) (Bacillus subtilis, UniProt O07621); details: 50 uM protein, 3 mM ethanol, modified PBS pH 8.0, 10% D2O, 298 K; heme not involved (UV spectra)
# Chain of HemATN (HemAT sensing domain, residues 1 to 178) (O07621 1-178): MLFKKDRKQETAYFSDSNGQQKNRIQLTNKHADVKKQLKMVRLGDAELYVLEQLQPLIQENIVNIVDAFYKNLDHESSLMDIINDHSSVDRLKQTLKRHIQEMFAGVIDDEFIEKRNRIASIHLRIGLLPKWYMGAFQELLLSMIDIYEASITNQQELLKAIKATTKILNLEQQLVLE
# Chain of McpBC (McpB cytoplasmic region, residues 305 to 662) (P39215 305-662): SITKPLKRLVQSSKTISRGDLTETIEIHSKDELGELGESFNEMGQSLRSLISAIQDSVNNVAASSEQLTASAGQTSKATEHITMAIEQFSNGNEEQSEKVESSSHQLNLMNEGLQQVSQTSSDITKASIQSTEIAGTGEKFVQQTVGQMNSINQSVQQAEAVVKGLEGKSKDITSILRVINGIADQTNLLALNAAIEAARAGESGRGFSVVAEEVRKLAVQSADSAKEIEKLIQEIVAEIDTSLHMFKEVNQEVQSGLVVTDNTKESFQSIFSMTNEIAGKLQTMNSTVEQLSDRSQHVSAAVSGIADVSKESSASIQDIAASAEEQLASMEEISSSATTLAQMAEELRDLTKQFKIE
smiles,measurement,setting,value
CCO [ethanol],"saturation fraction (STD/1H area ratio, -CH3)",[1],0.23
same,"STD/1H area ratio, -CH3 (-CH2 0.85)",[2],0.27
